From ChEMBL document CHEMBL1143050, “QSAR study on permeability of hydrophobic compounds with artificial membranes” (Bioorg Med Chem, 2007)
“And” between values parts separate entries of the source, which are not always exact repeats. Identical values can stand only once.

Key:
[1] = Partition coefficient, log P of the compound; details: octanol/water
[2] = Intrinsic artificial membrane permeability coefficient, log P0 of the compound; format: ADME
[3] = Permeability coefficient through artificial membrane in presence of unstirred water layer by PAMPA
[4] = Permeability coefficient through artificial membrane in presence of stirred water layer
[5] = tested on: Caco-2; test: Permeability from basolateral to apical side of the Caco-2 cell membrane; format: ADME, cell-based; details: human
[6] = tested on: Caco-2; test: Permeability from apical to basolateral side of the Caco-2 cell membrane; format: ADME, cell-based; details: human
[7] = Permeability coefficient through artificial membrane in presence of stirred water layer at 100 rpm stirring speed; format: ADME
[8] = Permeability coefficient through artificial membrane in presence of stirred water layer at 200 rpm stirring speed; format: ADME
[9] = Permeability coefficient through artificial membrane in presence of stirred water layer at 250 rpm stirring speed; format: ADME

## C=CCc1ccccc1OCC(O)CNC(C)C (configuration not stated) [ALPRENOLOL]
[1]
  logP: 2.65
[2]
  logPm: -1.02
[3]
  LogP app: -4.7
  Papp: 11.5 ×10⁻⁶ cm/s
[4]; PAMPA
  Papp: 61.4 ×10⁻⁶ cm/s
[4]; artificial membrane
  LogP app: -4.21

## COc1ccc([C@@H]2Sc3ccccc3N(CCN(C)C)C(=O)[C@@H]2OC(C)=O)cc1 [DILTIAZEM]
[1]
  logP: 2.8
[2]
  logPm: -1.85
[3]
  LogP app: -4.64
  Papp: 0.34 ×10⁻⁶ cm/s

## CCOP(=S)(OCC)Oc1cc(C)nc(C(C)C)n1 [DIMPYLATE]
[1]
  logP: 3.3
[5]
  LogP app: -4.42
[6]
  LogP app: -4.32
[3]
  LogP app: -5.28
  Papp: 5.21 ×10⁻⁶ cm/s
[4]; PAMPA
  Papp: 31.1 ×10⁻⁶ cm/s
[4]; artificial membrane
  LogP app: -4.51

## c1ccc(Nc2ccccc2)cc1 [DIPHENYLAMINE]
[5]
  LogP app: -4.35
[6]
  LogP app: -4.4
[3]
  LogP app: -5.51
  Papp: 3.1 ×10⁻⁶ cm/s
[4]; PAMPA
  Papp: 15 ×10⁻⁶ cm/s
[4]; artificial membrane
  LogP app: -4.82

## CC(C)Cc1ccc(C(C)C(=O)O)cc1 (configuration not stated) [IBUPROFEN]
[2]
  logPm: -1.15
[3]
  LogP app: -4.67 and -4.72

## CC(C)OP(=O)(OC(C)C)SCc1ccccc1 [IPROBENFOS]
[1]
  logP: 3.21
[5]
  LogP app: -4.35
[6]
  LogP app: -4.28
[3]
  LogP app: -4.93
  Papp: 11.7 ×10⁻⁶ cm/s
[4]; PAMPA
  Papp: 362 ×10⁻⁶ cm/s
[4]; artificial membrane
  LogP app: -3.44

## CC(C(=O)O)c1cccc(C(=O)c2ccccc2)c1 (configuration not stated) [KETOPROFEN]
[7]
  LogP app: -5.55
[2]
  logPm: -2.43
[8]
  LogP app: -5.49

## COCCc1ccc(OCC(O)CNC(C)C)cc1 (configuration not stated) [METOPROLOL]
[2]
  logPm: -1.75
[3]
  LogP app: -5.1 and -4.95
[4]; PAMPA
  Papp: 14.3 ×10⁻⁶ cm/s
[4]; artificial membrane
  LogP app: -4.84

## CN1C(C(=O)Nc2ccccn2)=C(O)c2ccccc2S1(=O)=O [PIROXICAM]
[1]
  logP: 1.98
[2]
  logPm: -2.08
[4]; PAMPA
  Papp: 19.2 ×10⁻⁶ cm/s
[4]; artificial membrane
  LogP app: -4.72

## O=C(O)c1ccccc1O [SALICYLIC ACID]
[2]
  logPm: -3.46
[4]; PAMPA
  LogP app: -5.31
  Papp: 4.9 ×10⁻⁶ cm/s

## C[C@]12CC[C@H]3[C@@H](CCC4=CC(=O)CC[C@@]43C)[C@@H]1CC[C@@H]2O [TESTOSTERONE]
[7]
  LogP app: -4.29
[9]
  LogP app: -3.87
[3]
  LogP app: -4.95 and -4.77
[8]
  LogP app: -4.08
[4]; PAMPA
  Papp: 136 ×10⁻⁶ cm/s
[4]; artificial membrane
  LogP app: -3.87
